{"source": "patent US7811797B2", "about": "“α-isomaltosylglucosaccharide-forming enzyme, process and uses of the same” (Kabushiki Kaisha Hayashibara Seibutsu Kagaku Kenkyujo, priority 2000, dated 2010)", "key": {"[1]": {"test_system": "α-isomaltosylglucosaccharide-forming enzyme", "assay": "Action on saccharides (substrates), Enzyme of Strain C9", "format": "biochemical, Bacillus globisporus C9", "parameters": "key: −: it showed no change; +: it showed a slight reduction of the color spot of the substrate and the formation of other reaction product; ++: it showed a high reduction of the color spot of the substrate and the formation of other reaction product; +++: it showed a substantial disappearance of the substrate spot and the formation of other reaction product", "settings": "two units/g substrate, substrate 2% (w/v), 30° C., pH 6.0, 24 hours, TLC", "protocol": "(§1) It was tested whether saccharides can be used as substrates for the α-isomaltosylglucosaccharide-forming enzyme. For the purpose, a solution of maltose, maltotriose, maltotetraose, maltopentaose, maltohexaose, maltoheptaose, isomaltose, isomaltotriose, panose, isopanose, trehalose, kojibiose, nigerose, neotrehalose, cellobiose, gentibiose, maltitol, maltotriitol, lactose, sucrose, erlose, selaginose, maltosyl glucoside, or isomaltosyl glucoside was prepared.\n(§2) To each of the above solutions was added two units/g substrate of a purified specimen of α-isomaltosylglucosaccharide-forming enzyme from either Bacillus globisporus C9 obtained by the method in Experiment 4-2, Bacillus globisporus C11 obtained by the method in Experiment 7-2, Bacillus globisporus N75 obtained by the method in Experiment 11-2, or Arthrobacter globiformis A19 obtained by the method in Experiment 15-2, and the resulting each solution was adjusted to give a substrate concentration of 2% (w/v) and incubated at 30° C. and pH 6.0, except for using pH 8.4 for the enzyme from Arthrobacter globiformis A19, for 24 hours. The enzyme solutions before and after the enzymatic reactions were respectively analyzed on TLC disclosed in Experiment 1 to confirm whether the enzymes acted on these substrates."}, "[2]": {"test_system": "α-isomaltosylglucosaccharide-forming enzyme", "assay": "Action on saccharides (substrates), Enzyme of Strain C11", "format": "biochemical, Bacillus globisporus C11", "parameters": "key: −: it showed no change; +: it showed a slight reduction of the color spot of the substrate and the formation of other reaction product; ++: it showed a high reduction of the color spot of the substrate and the formation of other reaction product; +++: it showed a substantial disappearance of the substrate spot and the formation of other reaction product", "settings": "two units/g substrate, substrate 2% (w/v), 30° C., pH 6.0, 24 hours, TLC", "protocol": "as §1, §2"}, "[3]": {"test_system": "α-isomaltosylglucosaccharide-forming enzyme", "assay": "Action on saccharides (substrates), Enzyme of Strain N75", "format": "biochemical, Bacillus globisporus N75", "parameters": "key: −: it showed no change; +: it showed a slight reduction of the color spot of the substrate and the formation of other reaction product; ++: it showed a high reduction of the color spot of the substrate and the formation of other reaction product; +++: it showed a substantial disappearance of the substrate spot and the formation of other reaction product", "settings": "two units/g substrate, substrate 2% (w/v), 30° C., pH 6.0, 24 hours, TLC", "protocol": "as §1, §2"}, "[4]": {"test_system": "α-isomaltosylglucosaccharide-forming enzyme", "assay": "Action on saccharides (substrates), Enzyme of Strain A19", "format": "biochemical, Arthrobacter globiformis A19", "parameters": "key: −: it showed no change; +: it showed a slight reduction of the color spot of the substrate and the formation of other reaction product; ++: it showed a high reduction of the color spot of the substrate and the formation of other reaction product; +++: it showed a substantial disappearance of the substrate spot and the formation of other reaction product", "settings": "two units/g substrate, substrate 2% (w/v), 30° C., pH 8.4, 24 hours, TLC", "protocol": "as §1, §2"}, "[5]": {"test_system": "α-isomaltosylglucosaccharide-forming enzyme", "assay": "Transfer-acceptor specificity, Enzyme of Strain C9", "format": "biochemical, Bacillus globisporus C9", "settings": "acceptor 1.6%, PINE-DEX #100 donor 4%, one unit/g donor, 30° C., pH 6.0, 24 hours", "protocol": "(§3) Using different saccharides, it was tested whether the saccharides were used as transferring-acceptors for the α-isomaltosylglucosaccharide-forming enzyme of the present invention. A solution of D-glucose, D-xylose, L-xylose, D-galactose, D-fructose, D-mannose, D-arabinose, D-fucose, D-psicose, L-sorbose, L-rhamnose, methyl-α-glucopyranoside, methyl-β-glucopyranoside, N-acetyl-glucosamine, sorbitol, trehalose, isomaltose, isomaltotriose, cellobiose, gentibiose, glycerol, maltitol, lactose, sucrose, α-cyclodextrin, β-cyclodextrin, γ-cyclodextrin, or L-ascorbic acid was prepared.\n(§4) To each solution with a saccharide concentration of 1.6% was added “PINE-DEX #100”, a partial starch hydrolysate, as a saccharide donor, to give a concentration of 4%, and admixed with one unit/g saccharide donor, d.s.b., of either of purified specimens of α-isomaltosylglucosaccharide-forming enzyme from Bacillus globisporus C9 obtained by the method in Experiment 4-2, Bacillus globisporus C11 obtained by the method in Experiment 7-2, Bacillus globisporus N75 obtained by the method in Experiment 11-2, or Arthrobacter globiformis A19 obtained by the method in Experiment 15-2, and incubated at 30° C. and pH 6.0, except that pH 8.4 was used for the enzyme from Arthrobacter globiformis A19, for 24 hours. The reaction mixtures of the post-enzymatic reactions were analyzed on gas chromatography (abbreviated as “GLC” hereinafter) for monosaccharides and disaccharides as acceptors, and on HPLC for trisaccharides as acceptors to confirm whether these saccharides could be used as their transfer acceptors. In the case of performing GLC, the following apparatuses and conditions are used: GLC apparatus, “GC-16A” commercialized by Shimadzu Corporation, Tokyo, Japan; column, a stainless-steel column, 3 mm in diameter and 2 m in length, packed with 2% “SILICONE OV-17/[…]”, commercialized by GL Sciences Inc., Tokyo, Japan; carrier gas, nitrogen gas at a flow rate of 40 ml/min under temperature conditions of increasing from 160° C. to 320° C. at an increasing temperature rate of 7.5° C./min; and detection, a hydrogen flame ionization detector. In the case of HPLC analysis, the apparatuses and conditions used are: HPLC apparatus, “CCPD” commercialized by Tosoh Corporation, Tokyo, Japan; column, “ODS-AQ-303” commercialized by YMC Co., Ltd., Tokyo, Japan; eluent, water at a flow rate of 0.5 ml/min; and detection, a differential refractometer."}, "[6]": {"test_system": "α-isomaltosylglucosaccharide-forming enzyme", "assay": "Transfer-acceptor specificity, Enzyme of Strain C11", "format": "biochemical, Bacillus globisporus C11", "settings": "acceptor 1.6%, PINE-DEX #100 donor 4%, one unit/g donor, 30° C., pH 6.0, 24 hours", "protocol": "as §3, §4"}, "[7]": {"test_system": "α-isomaltosylglucosaccharide-forming enzyme", "assay": "Transfer-acceptor specificity, Enzyme of Strain N75", "format": "biochemical, Bacillus globisporus N75", "settings": "acceptor 1.6%, PINE-DEX #100 donor 4%, one unit/g donor, 30° C., pH 6.0, 24 hours", "protocol": "as §3, §4"}, "[8]": {"test_system": "α-isomaltosylglucosaccharide-forming enzyme", "assay": "Transfer-acceptor specificity, Enzyme of Strain A19", "format": "biochemical, Arthrobacter globiformis A19", "settings": "acceptor 1.6%, PINE-DEX #100 donor 4%, one unit/g donor, 30° C., pH 8.4, 24 hours", "protocol": "as §3, §4"}}}
{"smiles": "OC[C@H]1O[C@@H](O[C@H]2[C@H](O)[C@@H](O)C(O)O[C@@H]2CO)[C@H](O)[C@@H](O)[C@H]1O", "note": "(stereo partly shown) [Lactose]", "values": [{"measurement": "Enzymatic action, Enzyme of Strain C9", "setting": "[1]", "value": "−"}, {"measurement": "Enzymatic action, Enzyme of Strain C11", "setting": "[2]", "value": "−"}, {"measurement": "Enzymatic action, Enzyme of Strain N75", "setting": "[3]", "value": "−"}, {"measurement": "Enzymatic action, Enzyme of Strain A19", "setting": "[4]", "value": "−"}, {"measurement": "Product of transferring reaction, Enzyme of Strain C9", "setting": "[5]", "value": "++ (a saccharide-transferred product was detected in an amount over ten percent through transfer reaction to acceptor)"}, {"measurement": "Product of transferring reaction, Enzyme of Strain C11", "setting": "[6]", "value": "++ (a saccharide-transferred product was detected in an amount over ten percent through transfer reaction to acceptor)"}, {"measurement": "Product of transferring reaction, Enzyme of Strain N75", "setting": "[7]", "value": "++ (a saccharide-transferred product was detected in an amount over ten percent through transfer reaction to acceptor)"}, {"measurement": "Product of transferring reaction, Enzyme of Stain A19", "setting": "[8]", "value": "++ (a saccharide-transferred product was detected in an amount over ten percent through transfer reaction to acceptor)"}]}
{"smiles": "OC[C@H]1O[C@H](O[C@H]2O[C@H](CO)[C@@H](O)[C@H](O)[C@H]2O)[C@H](O)[C@@H](O)[C@@H]1O", "note": "[Trehalose]", "values": [{"measurement": "Enzymatic action, Enzyme of Strain C9", "setting": "[1]", "value": "−"}, {"measurement": "Enzymatic action, Enzyme of Strain C11", "setting": "[2]", "value": "−"}, {"measurement": "Enzymatic action, Enzyme of Strain N75", "setting": "[3]", "value": "−"}, {"measurement": "Enzymatic action, Enzyme of Strain A19", "setting": "[4]", "value": "−"}, {"measurement": "Product of transferring reaction, Enzyme of Strain C9", "setting": "[5]", "value": "++ (a saccharide-transferred product was detected in an amount over ten percent through transfer reaction to acceptor)"}, {"measurement": "Product of transferring reaction, Enzyme of Strain C11", "setting": "[6]", "value": "++ (a saccharide-transferred product was detected in an amount over ten percent through transfer reaction to acceptor)"}, {"measurement": "Product of transferring reaction, Enzyme of Strain N75", "setting": "[7]", "value": "++ (a saccharide-transferred product was detected in an amount over ten percent through transfer reaction to acceptor)"}, {"measurement": "Product of transferring reaction, Enzyme of Stain A19", "setting": "[8]", "value": "++ (a saccharide-transferred product was detected in an amount over ten percent through transfer reaction to acceptor)"}]}
{"smiles": "OC[C@H]1O[C@H](OC[C@H]2OC(O)[C@H](O)[C@@H](O)[C@@H]2O)[C@H](O)[C@@H](O)[C@@H]1O", "note": "(stereo partly shown) [Isomaltose]", "values": [{"measurement": "Enzymatic action, Enzyme of Strain C9", "setting": "[1]", "value": "−"}, {"measurement": "Enzymatic action, Enzyme of Strain C11", "setting": "[2]", "value": "−"}, {"measurement": "Enzymatic action, Enzyme of Strain N75", "setting": "[3]", "value": "−"}, {"measurement": "Enzymatic action, Enzyme of Strain A19", "setting": "[4]", "value": "−"}, {"measurement": "Product of transferring reaction, Enzyme of Strain C9", "setting": "[5]", "value": "++ (a saccharide-transferred product was detected in an amount over ten percent through transfer reaction to acceptor)"}, {"measurement": "Product of transferring reaction, Enzyme of Strain C11", "setting": "[6]", "value": "++ (a saccharide-transferred product was detected in an amount over ten percent through transfer reaction to acceptor)"}, {"measurement": "Product of transferring reaction, Enzyme of Strain N75", "setting": "[7]", "value": "++ (a saccharide-transferred product was detected in an amount over ten percent through transfer reaction to acceptor)"}, {"measurement": "Product of transferring reaction, Enzyme of Stain A19", "setting": "[8]", "value": "+ (a saccharide-transferred product was detected in an amount over one percent but less than ten percent through transfer reaction to acceptor)"}]}
{"smiles": "OC[C@H]1O[C@H](OC[C@H]2O[C@H](OC[C@H]3OC(O)[C@H](O)[C@@H](O)[C@@H]3O)[C@H](O)[C@@H](O)[C@@H]2O)[C@H](O)[C@@H](O)[C@@H]1O", "note": "(stereo partly shown) [Isomaltotriose]", "values": [{"measurement": "Enzymatic action, Enzyme of Strain C9", "setting": "[1]", "value": "−"}, {"measurement": "Enzymatic action, Enzyme of Strain C11", "setting": "[2]", "value": "−"}, {"measurement": "Enzymatic action, Enzyme of Strain N75", "setting": "[3]", "value": "−"}, {"measurement": "Enzymatic action, Enzyme of Strain A19", "setting": "[4]", "value": "−"}, {"measurement": "Product of transferring reaction, Enzyme of Strain C9", "setting": "[5]", "value": "++ (a saccharide-transferred product was detected in an amount over ten percent through transfer reaction to acceptor)"}, {"measurement": "Product of transferring reaction, Enzyme of Strain C11", "setting": "[6]", "value": "++ (a saccharide-transferred product was detected in an amount over ten percent through transfer reaction to acceptor)"}, {"measurement": "Product of transferring reaction, Enzyme of Strain N75", "setting": "[7]", "value": "++ (a saccharide-transferred product was detected in an amount over ten percent through transfer reaction to acceptor)"}, {"measurement": "Product of transferring reaction, Enzyme of Stain A19", "setting": "[8]", "value": "∀ (a saccharide-transferred product was detected in an amount less than one percent through transfer reaction to acceptor)"}]}
{"smiles": "OC[C@H]1O[C@@H](OC[C@H]2OC(O)[C@H](O)[C@@H](O)[C@@H]2O)[C@H](O)[C@@H](O)[C@@H]1O", "note": "(stereo partly shown) [Gentibiose]", "values": [{"measurement": "Enzymatic action, Enzyme of Strain C9", "setting": "[1]", "value": "−"}, {"measurement": "Enzymatic action, Enzyme of Strain C11", "setting": "[2]", "value": "−"}, {"measurement": "Enzymatic action, Enzyme of Strain N75", "setting": "[3]", "value": "−"}, {"measurement": "Enzymatic action, Enzyme of Strain A19", "setting": "[4]", "value": "−"}, {"measurement": "Product of transferring reaction, Enzyme of Strain C9", "setting": "[5]", "value": "++ (a saccharide-transferred product was detected in an amount over ten percent through transfer reaction to acceptor)"}, {"measurement": "Product of transferring reaction, Enzyme of Strain C11", "setting": "[6]", "value": "++ (a saccharide-transferred product was detected in an amount over ten percent through transfer reaction to acceptor)"}, {"measurement": "Product of transferring reaction, Enzyme of Strain N75", "setting": "[7]", "value": "++ (a saccharide-transferred product was detected in an amount over ten percent through transfer reaction to acceptor)"}, {"measurement": "Product of transferring reaction, Enzyme of Stain A19", "setting": "[8]", "value": "+ (a saccharide-transferred product was detected in an amount over one percent but less than ten percent through transfer reaction to acceptor)"}]}
